{
  "source": "patent US7915291B2",
  "about": "“Hepatitis C virus inhibitors” (Bristol-Myers Squibb Company, priority 2002, dated 2011)",
  "key": {"[1]": {"biological_target": "HCV NS3/4A protease complex, BMS strain (UniProt P27958, C1454S/C1711G, species not given/STRAIN_BMS)", "test": "Recombinant HCV NS3/4A protease complex FRET peptide assay (BMS strain)", "type": "biochemical, HCV genotype 1a", "summary_of_the_method": "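Percent inhibition taken from the linear-range fluorescence slope relative to uninhibited control, read kinetically for about 15 min at 25° C. Enzyme (2-3 nM, BMS NS3/4A complex, lysine-tailed, Ni-NTA purified) met compound for 1 min before 2 μM FRET depsipeptide substrate started cleavage.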"}, "[2]": {"biological_target": "T1, human leukocyte elastase (HLE) (Homo sapiens, UniProt P08246)", "T1 construct": "purchased Sigma", "T1 sequence (P08246 30-267)": "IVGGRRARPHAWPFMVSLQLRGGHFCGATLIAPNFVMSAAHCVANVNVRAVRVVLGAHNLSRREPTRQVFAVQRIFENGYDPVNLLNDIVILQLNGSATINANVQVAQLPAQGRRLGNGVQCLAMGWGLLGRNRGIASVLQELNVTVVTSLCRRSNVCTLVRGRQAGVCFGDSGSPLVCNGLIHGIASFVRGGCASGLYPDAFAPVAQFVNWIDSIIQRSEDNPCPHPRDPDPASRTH", "test": "Specificity assay, HLE", "type": "biochemical", "conditions": "2 hr pre-incubation", "procedure": "The specificities of compounds of the present invention were determined against a variety of serine proteases: human leukocyte elastase (HLE), porcine pancreatic elastase (PPE) and human pancreatic chymotrypsin and one cysteine protease: human liver cathepsin B. In all cases a 96-well plate format protocol using colorimetric p -nitroaniline (pNA) substrate specific for each enzyme was used as described previously (Patent WO 00/09543) with some modifications to the serine protease assays. All enzymes were purchased from Sigma while the substrates were from Bachem.\nEach assay included a 2 hr enzyme-inhibitor pre-incubation at RT followed by addition of substrate and hydrolysis to ˜30% conversion as measured on a Spectramax Pro microplate reader. Compound concentrations varied from 100 to 0.4 μM depending on their potency. […]\nThe percentage of inhibition was calculated using the formula: [1−((UVinh−UVblank)/(UVctl−UVblank))]×100 […]"}},
  "note": "Where two headings read alike, the source gives them in different places.",
  "data": [
    {"smiles": "C=C[C@@H]1C[C@]1(NC(=O)[C@@H]1C[C@@H](Oc2nc(C3CC3)cc3ccccc23)CN1C(=O)[C@@H](NC(=O)OC(C)(C)C)C(C)(C)C)C(=O)NS(=O)(=O)C1CC1", "note": "[Compound 34]", "values": [
      {"measurement": "IC50", "setting": "[1]; BMS strain, read-out: IC50 against the NS3/4A BMS strain in the enzyme assay", "value": 23, "unit": "nM"},
      {"measurement": "IC50", "setting": "[1]; NS3/4A BMS strain, read-out: IC50 range", "value": "< 100", "unit": "nM"},
      {"measurement": "IC50", "setting": "[2]", "value": "> 100000", "unit": "nM"}
    ]}
  ]
}
